Assay results: paper PMC7036132, “Effects of the Salt-Processing Method on the Pharmacokinetics and Tissue Distribution of Orally Administered Morinda officinalis How. Extract” (Journal of Analytical Methods in Chemistry, 2020)

Assay: Pharmacokinetics in rat plasma after oral administration of MO and SMO extract (UPLC-MS/MS)
Type: in vivo, Sprague-Dawley (SD) rats
Details: for Cmax: rat, plasma, po, 40 g/kg; for Cmax / AUC (0-t) / AUC (0-∞) / CL/F / MRT (0-t) / T max / V/F / t1/2z: n = 6
Method: For LC-MS/MS analysis, data acquisition and instrument control were performed using MassLynx 4.1 software (Waters Corp., Milford, MA, USA). The analysis column was an Acquity UPLC HSS T3 column (100 mm × 2.1 mm, 1.8 μm, Waters) with a temperature of 40°C. The mobile phase was acetonitrile containing 0.1% formic acid (A) and 0.1% formic acid aqueous solution (B). The elution gradient was 0.00–0.50 min with 2% B; 0.51–5.00 min with 2%–30% B; and 5.01–7.00 min with 40% B. The flow rate was 0.2 mL/min.
The Waters triple quadruple mass spectrometer (Xevo TQD, Waters Corp., Milford, MA, USA) equipped with an electrospray ionization source (ESI) was used in negative ion mode. The desolvation gas was nitrogen with a flow rate of 500 L/h at a temperature of 250°C. All detected compounds were measured in multiple reaction monitoring (MRM) mode.
10 μL of IS working solution and 400 μL of methanol were added to 100 μL plasma. The solution was vortexed for 10 min and then centrifuged at 12,000 rpm for 5 min. The supernatant was shifted to another centrifugation tube and dried with nitrogen at 37°C. The residue was redissolved in 100 μL acetonitrile and centrifuged for 5 min at 12,000 rpm. Five microliters of supernatant was drawn and analyzed by UPLC-MS/MS.
The SD rats (6, male) were housed at 22 ± 2°C and fasted for 12 h with drinking water available ad libitum. MO and SMO ethanol extract were orally administered at a dose of 40 g/kg (equivalent to 6.44 and 3.95 mg/kg of monotropein, 0.088 and 0.091 mg/kg of rubiadin, and 0.174 and 0.178 mg/kg of rubiadin 1-methyl ether). Blood samples (0.5 mL) were collected from the venous plexus of the eye socket at 0.083, 0.25, 0.5, 1.0, 1.5, 2.0, 2.5, 4.0, 6.0, 12.0, and 24 h under anesthesia. Then, the blood samples were centrifuged at 4500 rpm for 10 min, and then the plasma was immediately transferred to new tubes and stored at −80°C until analysis. The pharmacokinetic parameters were calculated using DAS software (3.0 version, China Food and Drug Administration) based on noncompartmental method. All data were recorded as mean ± SD.

Cc1c(O)cc2c(c1O)C(=O)c1ccccc1C2=O [Rubiadin, rubiadin]
Tmax (male, Sprague-Dawley, oral extract 40 g/kg, MO or SMO group not specified): 1.5 h | Cmax (male, Sprague-Dawley, oral MO extract 40 g/kg): 46.7 ± 12.9 ng/mL | Cmax (male, Sprague-Dawley, oral SMO extract 40 g/kg): 50.2 ± 8.9 ng/mL | AUC (0-t) (oral MO extract 40 g/kg): 152.252 ± 7.098 μg/L ∗ h | AUC (0-∞) (oral MO extract 40 g/kg): 153.816 ± 7.169 μg/L ∗ h | CL/F (oral MO extract 40 g/kg): 0.261 ± 0.012 L/g/h | MRT (0-t) (oral MO extract 40 g/kg): 6.062 ± 0.272 H | T max (oral MO extract 40 g/kg): 1.5 ± 0.00 H | V/F (oral MO extract 40 g/kg): 1.442 ± 0.090 L/g | t1/2z (oral MO extract 40 g/kg): 3.838 ± 0.196 H | AUC (0-t) (oral SMO extract 40 g/kg): 169.355 ± 8.836 μg/L ∗ h | AUC (0-∞) (oral SMO extract 40 g/kg): 176.441 ± 18.283 μg/L ∗ h | CL/F (oral SMO extract 40 g/kg): 0.228 ± 0.022 L/g/h | MRT (0-t) (oral SMO extract 40 g/kg): 5.89 ± 0.265 H | T max (oral SMO extract 40 g/kg): 1.5 ± 0.00 H | V/F (oral SMO extract 40 g/kg): 1.579 ± 0.842 L/g | t1/2z (oral SMO extract 40 g/kg): 5.006 ± 3.383 H | Cmax and AUC0-t, SMO groups compared with the MO group (oral extract 40 g/kg): elevated remarkably
